Laboratory results reported in patent publication US10357537B2, “Cyclotides as immunosuppressive agents” (priority 2011, dated 2019).
Where “and” joins values, the source holds several entries; their conditions need not be identical. Equal values may be shown once. Bridge positions count the residues as written; N and C are the ends. Peptide text beside a SMILES is read from it.

Key:
[1] = system: IL-2 release in PBMCs; test: IL-2 release of PBMC, ELISA-based FACS; assay type: cell-based, human; conditions: PHA-L 24 h, PMA/ionomycin 6 h; T20K 4 μM, CsA 5 μg/mL
Description: (§1) Following purification, PBMCs were equilibrated for 2 h at 37° C. […] This was followed by washing of each well with 100 μl PBS (centrifugation for 5 min, 1000 rpm, 20° C.) and re-suspending the cells in 100 μl medium for further assays.
Activated cells were resuspended in 50 μl of medium, transferred into a 96-well plate and treated with 10 μg/ml PHA-L. After incubation for 24 h cells were re-stimulated with PMA (50 ng/ml) und ionomycin (500 ng/ml) for 6 h. Next, the cells were transferred into Eppendorf tubes, centrifuged (5 min, 3000 RPM, 20° C.) und 50 μl of the supernatant was again transferred into new tubes and stored at −20° C. Production of cytokines was measured and quantified using the FlowCytomix™ kit according to manufacturer's instructions.
To analyze the mechanism of cyclotide-mediated anti-proliferation of T-lymphocytes, their effect on the direct release of IL-2 in PBMCs was determined. The cells were treated with a cyclotide and activated with PHA-L. After 24 h the cells were re-stimulated with PMA and ionomycin and the IL-2 concentration in the supernatant (released IL-2) was measured with an ELISA-based FACS methodology (FIG. 12A).

[2] = system: degranulation marker LAMP-1 (CD107a) on activated PBMC; test: CD107a degranulation analysis; assay type: cell-based, human; conditions: after 36 h; T20K 4 μM, CsA 5 μg/mL
Description: FIG. 16. Degranulation capacity of cyclotide-treated activated human PBMC. […] After 36 hour of cultivation the cells were restimulated with PMA/Ionomycin for 2.5 hours in the presence of a CD107a mAbs and GolgiStop reagent to determine the amount of degranulation by flow cytometry. Representative data are shown in dot plots (A) and in (B) data are presented as mean and standard deviation (SD) of three independent experiments.
Activated cells were grown for 36 h and then treated for re-stimulation with PMA (50 ng/ml) und ionomycin (500 ng/ml) and stained with CD107a PE. After 1 h the reaction was stopped with 2 μl Golgi-Stop (1:10) and incubated for 2.5 h at 37° C. The cells were transferred into a 96-well plate, centrifuged (5 min, 1000 RPM, 20° C.) and washed with 100 μl FACS-buffer. Afterwards, PBMCs were stained with CD8 PE-Cy5 for 15 min at 4° C. and following to wash cycles with FACS-buffer the cells were resuspended in 100 μl, transferred into FACS vials with a total volume of 250 μl and the degranulation was measured by FACS analysis.
After determining the influence of cyclotide treatment on the effector function of PBMCs on the basis of measuring IFN-gamma and TNF-alpha cytokine levels, it is of interest to determine an effect of cyclotides on the degranulation activity. Activation of cytotoxic CD8^+-lymphocytes lead to a release of cytolytic granules, which contain/express lysosomal-associated membrane protein 1 (CD107; LAMP-1). During degranulation, the granule vesicle membranes fuse with the membranes of activated CD8^+-lymphocytes and therefore LAMP-1 can be used as a marker protein for the cytotoxic activity of T-lymphocytes, which can be measured with FACS. After 36 h, 42%±21.4 of the CsA- and 49%±16.8 of the T20K-treated cells contain the degranulation marker LAMP-1 as compared to the control (FIG. 16). This can be interpreted in the way that CsA- and T20K-treated cells have reduced cytotoxicity.

[3] = system: PHA-L-stimulated PBMC; test: Proliferation of PHA-L-stimulated CFSE-labelled PBMC with or without exogenous IL-2; assay type: cell-based, human; conditions: cyclotides 4 μM, CsA 5 μg/mL, 3 day culture; for proliferation with exogenous IL-2: IL-2 10 U/mL
Description: FIG. 13. Proliferation capacity of cyclotide-treated PBMC in the presence of exogenous IL-2. […] The cells were cultured without exogenous IL-2 (10 U/mL) (A and B) or in the presence of IL-2 (C and D). The CFSE-labelled cells were measured after a 3 day culture period by flow cytometry and representative data are presented in dot plots (A and C). Data are presented as mean and standard deviation (SD) of three independent experiments.
as §1
Purified PBMCs (5*10^6 cells/ml) were incubated with […] of the fluorescent dye CFSE (5-carbofluoreszenein-ciacetat-succinylester) for 10 min at 37° C. The reaction was stopped using medium, cells were washed one time with medium by centrifugation (10 min, 300×g, 20° C.) and diluted with medium to 4*10^6 cells/ml.

[4] = system: nematodes; test: Relative nematocidal activity (other assays, Table 2); assay type: in vivo; conditions: some cells print two values separated by a slash
[5] = system: IL-2 surface receptor CD25 on PBMC; test: IL-2 surface receptor CD25 expression, FACS; assay type: cell-based, human; conditions: cyclotides 4 μM, CsA 5 μg/mL, PHA-L; stimulated untreated PBMCs = 100%
Description: PBMCs were isolated from blood samples of healthy adults that were provided by the transfusion center of the university hospital in Freiburg (Germany). […] The lymphocyte-enriched layer was transferred into a new vessel and washed three times with PBS and centrifuged again (10 min, twice with 300×g and last time with 800 rpm, 20° C.). For the following experiments, the cells were either stained with CFSE or diluted with medium to 4*10^6 cells/ml. Cells were counted in alight microscope using trypan blue staining and a hemocytometer.
as §1
Activated cells were transferred into a 96-well plate, centrifuged (5 min, 1000 rpm, 20° C.), washed one time with 100 μl FACS-buffer and stained with CD25 PE for 15 min at 4° C. Then cells were washed twice with FCS-buffer and resuspended in 100 μl FACS-buffer, transferred into FACS vials with a total volume of 250 μl and the expression of IL2 surface receptor CD25 was measured by FACS analysis using a FACSCalibur instrument (BD Biosciences).
Amongst other pathways, T-cell proliferation is determined by binding of the cytokine IL-2 to its cell surface receptor. Therefore the influence of cyclotides on the expression of the IL-2 receptor was tested. […] As control substance CsA was used. […] Treatment with V10A yields 114%±12.5, V10K yields 112%±16.3 and T8K yields 114%±17.3 CD25 surface expression after 24 h as compared to the control (FIG. 11B).

`CC(C)C[C@@H]1NC(=O)CNC(=O)[C@H](CC(N)=O)NC(=O)[C@H](CCCNC(=N)N)NC(=O)[C@H]([C@@H](C)O)NC(=O)[C@@H]2CSSC[C@@H]3NC(=O)[C@H]([C@@H](C)O)NC(=O)CNC(=O)CNC(=O)[C@H](C(C)C)NC(=O)[C@@H]4CSSC[C@H](NC(=O)[C@H](CCCCN)NC(=O)[C@H](CSSC[C@H](NC(=O)[C@H](C(C)C)NC(=O)[C@@H]5CCCN5C1=O)C(=O)NCC(=O)N[C@@H](CCC(=O)O)C(=O)N[C@@H]([C@@H](C)O)C(=O)N4)NC(=O)CNC(=O)[C@@H]1CCCN1C(=O)[C@H]([C@@H](C)O)NC(=O)[C@H](CC(N)=O)NC3=O)C(=O)N[C@@H](CO)C(=O)N[C@@H](Cc1c[nH]c3ccccc13)C(=O)N1CCC[C@H]1C(=O)N[C@@H](C(C)C)C(=O)N2` [Kalata T20K] (cyclo(CGETCVGGTCNTPGCKCSWPVCTRNGLPV); disulfide 1-15, 5-17, 10-22 (inferred); ring closure inferred) was tested. Which “IL-2 release as compared to the control cells” value [1] did it give?
The value was 24%±18.6.

What about the “cells containing the degranulation marker LAMP-1 as compared to the control” value [2] of the same molecule?
The value was 49%±16.8.

And the “proliferation with exogenous IL-2” value [3]?
The value was 91%±1.4.

And the “proliferation as compared to the control cells, without exogenous IL-2” value [3]?
Its value is 29%±24.

What about the “Relative activity in other assays (fold difference to kB1): nematocidal” value [4] of the same molecule?
Its value is 3.0 fold difference to kB1 and 2.6 fold difference to kB1.

And the “CD25 expression after 48 h” value [5]?
The value was 46%±18.2.

And the “CD25 surface expression after 24 hours” value [5]?
The value was 79%±10.1.

For “kalata B1 mutant GLPVCGETCKGGTCNTPGCTCSWPVCTRN (SEQ ID No. 10) [Kalata V10K]”, which “IL-2 release as compared to the control cells” value [1] is on record?
The value was “no effect on the release of IL-2”.

And the “cells containing the degranulation marker LAMP-1 as compared to the control” value [2]?
The value was “no influence on the degranulation activity”.

And the “proliferation with exogenous IL-2” value [3]?
The value was “did not change the effect on proliferation”.

And the “proliferation as compared to the control cells, without exogenous IL-2” value [3]?
Its value is “no effect on the proliferation”.

What about the “Relative activity in other assays (fold difference to kB1): nematocidal” value [4] of the same molecule?
The value was <0.2 fold difference to kB1.

What about the “CD25 expression after 48 h” value [5] of the same molecule?
Its value is “no significant change in receptorexpression”.

And the “CD25 surface expression after 24 hours” value [5]?
Its value is 112%±16.3.
